In patent US11285161B2, “Method and composition for treating mental disorder and pain associated with nerve damage” (City University of Hong Kong, priority 2019, dated 2022):

How the values were obtained:
[1] = system: mice; experiment: Acute forced swim test; assay type: in vivo, mouse; conditions: 30 μg/kg intraperitoneally 30 minutes before test, 5-minute test, vs saline, FIG. 3B
Procedure: In the forced swim test, mice were forced to swim in a narrow cylinder from which they cannot escape. A Plexiglas cylinder (13 cm diameter and 24 cm high) containing water (22° C.±2° C.) to a depth of 10 cm was used. The mice were injected intraperitoneally with YM022 (30 μg/kg), YF476 (30 μg/kg) or saline 30 minutes before the test. After placing the animals in the cylinders, the duration of immobility during the 5-minute test were measured.

[2] = biological target: T1, CCK2 receptor (Homo sapiens, UniProt P32239); conditions: cited from earlier work
T1 sequence (P32239 1-447): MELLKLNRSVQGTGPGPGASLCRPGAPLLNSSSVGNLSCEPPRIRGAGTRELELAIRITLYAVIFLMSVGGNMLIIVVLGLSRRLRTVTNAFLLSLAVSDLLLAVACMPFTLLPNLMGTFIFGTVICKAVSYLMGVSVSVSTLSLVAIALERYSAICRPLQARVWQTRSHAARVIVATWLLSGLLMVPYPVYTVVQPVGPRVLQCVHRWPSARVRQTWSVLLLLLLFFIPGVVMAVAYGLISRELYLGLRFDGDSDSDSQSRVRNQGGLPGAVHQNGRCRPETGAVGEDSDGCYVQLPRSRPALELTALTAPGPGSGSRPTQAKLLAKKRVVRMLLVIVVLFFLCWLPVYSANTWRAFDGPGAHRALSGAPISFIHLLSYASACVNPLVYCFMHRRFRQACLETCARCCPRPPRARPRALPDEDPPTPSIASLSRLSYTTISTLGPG

[3] = system: spared nerve injury (SNI) mice; experiment: Body weight of SNI mice; assay type: in vivo, mouse; conditions: 30 ng/kg Day 7-Day 30, Day 40, vs SNI-saline, FIG. 1B
Description: (§1) The antidepressant and analgesic activities of the compound of formula (IIb) (referred to as YM022) and the compound of formula (IIIb) (referred to as YF476) were investigated in a mouse model of spared nerve injury (SNI). The SNI model is a partial denervation model in which the injured nerves produce consistent pain hypersensitivity in the territory of the spared sural nerve, wherein the spared nerve injury can provoke depressive-like behaviors. In the experiment, depressive-like behaviors were assessed by a tail suspension test and monitoring body weight. Responses to pain were tested by measuring the sensitivity to mechanical stimulation by von Frey filaments.
(§2) For the SNI surgery, the mice were anesthetized by intraperitoneal injection of ketamine (100 mg/kg) and xylazine (15 mg/kg). […]
(§3) After SNI surgery (Day 0), the mice were treated with the compound of formula (IIb) (referred to as YM022) and the compound of formula IIIb (referred to as YF476), both at 30 ng/kg, for 24 days (Day 7-Day 30). The bodyweight of the mice were measured (FIG. 1B) and the tail suspension test (FIG. 1A) was carried out on Day 40 to assess the depressive status. […] A blinded observer monitored the test for 6 min and recorded the immobility time.

[4] = biological target: T1, CCK2 receptor
[5] = system: spared nerve injury (SNI) mice; experiment: Von Frey filament test in SNI mice; assay type: in vivo, mouse; conditions: Day 8 (after drug injection), FIG. 2
Description: as §1
For the SNI surgery, the mice were anesthetized by intraperitoneal injection of ketamine (100 mg/kg) and xylazine (15 mg/kg). The skin on the lateral surface of the left thigh was cleaned and incised, and then sterile scissors were used to expose three branches of the sciatic nerves: namely sural, common peroneal, and tibial nerves. […]
The Von Frey filament test was used 1 day before the surgery (Day-1) or on Day 1, Day 7 (after drug injection), Day 8 (after drug injection) to estimate the sensitivity of the mice to the mechanical stimulation. […] Response in three out of five stimuli was regarded as a positive reaction and the threshold level was recorded (FIG. 2).

[6] = system: mice; experiment: Acute tail suspension test; assay type: in vivo, mouse; conditions: 3 μg/kg or 30 μg/kg intraperitoneally 30 minutes before test, vs saline, FIG. 3A
Procedure: After SNI surgery (Day 0), the mice were treated with the compound of formula (IIb) (referred to as YM022) and the compound of formula IIIb (referred to as YF476), both at 30 ng/kg, for 24 days (Day 7-Day 30). The bodyweight of the mice were measured (FIG. 1B) and the tail suspension test (FIG. 1A) was carried out on Day 40 to assess the depressive status. In the tail suspension test, each mouse was suspended by its tail and secured by adhesive tape to the suspension bar. A blinded observer monitored the test for 6 min and recorded the immobility time.
In another acute tail suspension test, mice were injected intraperitoneally with YM022 (3 μg/kg or 30 μg/kg), YF476 (3 μg/kg or 30 μg/kg) or saline 30 minutes before the test. The tail suspension test was then performed as described above.

[7] = system: spared nerve injury (SNI) mice; experiment: Tail suspension test in spared nerve injury (SNI) mice; assay type: in vivo, mouse; conditions: 30 ng/kg Day 7-Day 30, tested Day 40 (10 days after discontinuation), vs SNI-saline and Sham-saline, FIG. 1A
Description: as §1, §2, §3

[8] = biological target: T2, CCK1 receptor (Homo sapiens, UniProt P32238); conditions: read-out: IC50 to the CCK1 receptor; cited from earlier work
T2 sequence (P32238 1-428): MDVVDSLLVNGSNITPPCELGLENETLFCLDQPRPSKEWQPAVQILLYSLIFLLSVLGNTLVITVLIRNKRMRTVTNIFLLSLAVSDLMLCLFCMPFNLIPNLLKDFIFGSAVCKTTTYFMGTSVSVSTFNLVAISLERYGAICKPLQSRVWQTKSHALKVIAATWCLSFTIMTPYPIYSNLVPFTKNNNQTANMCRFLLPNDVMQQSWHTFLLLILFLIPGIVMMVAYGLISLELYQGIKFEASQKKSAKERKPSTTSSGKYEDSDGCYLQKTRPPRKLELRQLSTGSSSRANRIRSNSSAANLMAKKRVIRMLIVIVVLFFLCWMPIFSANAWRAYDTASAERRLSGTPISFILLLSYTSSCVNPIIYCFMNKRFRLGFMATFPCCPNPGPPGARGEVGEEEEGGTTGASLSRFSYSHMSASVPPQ

Compound	immobile time in forced swim test [1]	IC50 [2]	body weight [3]	selectivity CCK2 versus CCK1 receptor [4]	mechanical threshold in Von Frey filament test [5]	immobile time in acute tail suspension test [6]	immobile time in tail suspension test [7]	IC50 [8]
Cc1cccc(NC(=O)N[C@@H]2N=C(c3ccccc3)c3ccccc3N(CC(=O)c3ccccc3C)C2=O)c1 [YM022]	less immobile time	0.07 nM	increased body weight	selectively inhibit CCK2 receptors	higher mechanical threshold	less immobile time	reduced immobile time	63 nM
CNc1cccc(NC(=O)N[C@@H]2N=C(c3ccccn3)c3ccccc3N(CC(=O)C(C)(C)C)C2=O)c1 [YF476]	less immobile time	0.11 nM	increased body weight	selectively inhibit CCK2 receptors	higher mechanical threshold	less immobile time	reduced immobile time	500 nM
